The text below walks through data of ChEMBL document CHEMBL4052789, “Essential structure of orexin 1 receptor antagonist YNT-707, Part I: Role of the 4,5-epoxy ring for binding with orexin 1 receptor” (Bioorg Med Chem Lett, 2017).

In one experiment the target is T1, Orexin receptor type 2 (Homo sapiens, UniProt O43614).
T1 sequence (O43614 whole entry): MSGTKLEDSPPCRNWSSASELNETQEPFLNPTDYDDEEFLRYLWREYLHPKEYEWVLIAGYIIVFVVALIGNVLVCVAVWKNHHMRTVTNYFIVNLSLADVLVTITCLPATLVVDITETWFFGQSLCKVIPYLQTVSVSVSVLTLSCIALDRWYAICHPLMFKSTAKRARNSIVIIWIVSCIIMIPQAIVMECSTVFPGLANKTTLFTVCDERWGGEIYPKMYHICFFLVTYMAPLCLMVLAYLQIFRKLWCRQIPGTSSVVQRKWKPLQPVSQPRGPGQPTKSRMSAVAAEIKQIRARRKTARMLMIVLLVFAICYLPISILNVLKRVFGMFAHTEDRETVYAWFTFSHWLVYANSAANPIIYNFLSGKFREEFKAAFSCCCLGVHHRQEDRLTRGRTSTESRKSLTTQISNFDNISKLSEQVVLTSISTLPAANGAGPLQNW
Description: Antagonist activity at human OX2R expressed in CHOK1 cells assessed as inhibition of orexin A-induced intracellular Ca2+ release preincubated for 15 mins followed by orexin A addition by Fura 2-AM dye based fluorescence assay. It is filed as functional, cell-based.

The species entered for the next experiment is Homo sapiens. Description: Selectivity ratio of Ki for human OX2R to Ki for human OX1R.
For experiment [1], the target named is T2, Orexin/Hypocretin receptor type 1 (Homo sapiens, UniProt O43613).
T2 sequence (O43613 whole entry): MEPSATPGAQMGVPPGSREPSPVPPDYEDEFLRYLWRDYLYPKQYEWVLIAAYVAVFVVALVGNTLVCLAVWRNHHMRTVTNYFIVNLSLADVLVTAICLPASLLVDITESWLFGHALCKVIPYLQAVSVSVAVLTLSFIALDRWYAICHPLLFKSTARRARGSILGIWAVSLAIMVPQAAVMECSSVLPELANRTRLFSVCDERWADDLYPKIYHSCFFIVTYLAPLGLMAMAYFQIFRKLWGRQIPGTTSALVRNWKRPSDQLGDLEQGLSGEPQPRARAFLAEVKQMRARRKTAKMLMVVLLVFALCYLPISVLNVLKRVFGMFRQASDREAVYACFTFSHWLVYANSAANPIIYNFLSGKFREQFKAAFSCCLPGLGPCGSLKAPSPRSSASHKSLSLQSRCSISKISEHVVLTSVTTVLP
Description: (§1) Antagonist activity at human OX1R expressed in CHOK1 cells assessed as inhibition of orexin A-induced intracellular Ca2+ release preincubated for 15 mins followed by orexin A addition by Fura 2-AM dye based fluorescence assay. It is filed as functional, cell-based.

Experiment [2] deals with T3, Orexin/Hypocretin receptor type 1 (Homo sapiens) (UniProt O43613).
T3 sequence (whole entry): T2 sequence (O43613 whole entry)
The description is as §1. It is filed as functional, cell-based.

Molecules are shown by their SMILES. The source made the active and inactive calls. The rule behind the calls is not given here. A value given as a limit tells only on which side of the number the result lay.

Usually IC50 stands for the point on the concentration scale where inhibition reaches its midpoint. In general, Ki refers to a measure of affinity in units of concentration, obtained from inhibition or displacement.

Take `COc1ccc2c3c1O[C@H]1[C@H](N(C)C(=O)/C=C/c4ccoc4)CC[C@@]4(O)[C@@H](C2)N(S(=O)(=O)c2ccccc2)CC[C@]314`: on Orexin receptor type 2, the IC50 was greater than 10000 nM. Consider `COc1ccc2c(c1)[C@]13CCN(S(=O)(=O)c4ccccc4)[C@H](C2)[C@]1(O)CC[C@H](N(C)C(=O)/C=C/c1ccoc1)C3`, for which the Ki on Orexin receptor type 2 turned out to be 294 nM; in experiment [1], 11.2 nM. Besides, the Ratio Ki in the experiment listed under Homo sapiens amounted to 26.1. Take `COc1ccc2c3c1O[C@H]1[C@@H](N(C)C(=O)/C=C/c4ccoc4)CC[C@@]4(O)[C@@H](C2)N(S(=O)(=O)c2ccccc2)CC[C@]314`: the IC50 at Orexin receptor type 2 is greater than 10000 nM. The Ki in experiment [1] is 849 nM.

Consider `CN(C(=O)/C=C/c1ccoc1)[C@@H]1CC[C@@]2(O)[C@H]3Cc4cccc5c4[C@@]2(CCN3S(=O)(=O)c2ccccc2)[C@H]1O5`, for which the values for the half-inhibitory concentration (IC50) (on Orexin receptor type 2; in experiment [1]) were no less than 10000 nM and 1910 nM, respectively. As to `COc1ccc2c(c1)[C@]13CCN(S(=O)(=O)c4ccccc4)[C@H](C2)[C@]1(O)CC[C@@H](N(C)C(=O)/C=C/c1ccoc1)C3`, on Orexin receptor type 2, the IC50 is greater than 10000 nM. In addition, in experiment [1], the Ki is 31.6 nM.

As for `CN(C(=O)/C=C/c1ccoc1)[C@@H]1CC[C@@]2(O)[C@H]3Cc4ccc(OCc5ccccc5)c5c4[C@@]2(CCN3S(=O)(=O)c2ccccc2)[C@H]1O5`, the inhibition result in experiment [2] is “inactive”.
